The values that follow come from patent US9738684B2, “N-terminally modified linear and branched polyamine conjugated peptidomimetics as antimicrobials agents” (COUNCIL OF SCIENTIFIC & INDUSTRIAL RESEARCH, priority 2015, dated 2017).

In brackets after ≈: the same amount, converted by molar mass.

Data set [1] relates to Escherichia coli (ATCC 11775). Briefly: MIC, serial broth dilution. Type of data set: cell-based. The settings on record: MHB, 18 h, 37° C. Set-up: MIC E. coli. (ATCC 11775): unit not given here. The protocol: (§1) The peptidomimetics designed in present invention were evaluated as antibacterial therapeutics against a broad range of bacterial strains by broth microdilution method. The antibacterial activity of the peptidomimetics was reported in terms of the minimum inhibitory concentrations (MIC).
(§2) Following bacterial strains were used in this study: S. aureus (ATCC 29213), methicillin resistant S. aureus (ATCC 33591), Staphylococcus epidermidis (ATCC 12228), methicillin resistant Staphylococcus epidermidis(ATCC 51625), Enterococcus faecalis (ATCC 7080), Escherichia coli (ATCC 11775), and Acinetobacter baumannii (ATCC 19606). Antibacterial activity was evaluated using a modified serial broth dilution method in accordance with Clinical Laboratory Standard Institute guidelines [Methods for dilution antimicrobial susceptibility tests for bacteria that grow aerobically-7th ed. Approved standard M7-A7. Clinical and Laboratory Standards Institute, Wayne, Pa., Biochim. Biophys. Acta 1798:1864-1875, 2010.]. Briefly, the inoculums were prepared from mid-log phase bacterial cultures. Peptidomimetics were incubated with bacterial suspension in Muller Hinton broth media (10^5 CFU/mL) in 96 well microtitre plate. The plates were incubated overnight with agitation (200 rpm) at 37° C. After 18 h, absorbance was measured at 630 nm. Cultures without test peptidomimetics were used as positive control. Un-inoculated Mueller Hinton Broth (MHB) was used as negative control. Tests were carried out in duplicate on at least three different days. […] For comparison standard peptide antibiotics vancomycin (VAN) and polymyxin B (PMB) were also assayed under identical conditions (Table 2). […] Further, antibacterial activity of active peptidomimetics 1c and 1d were also evaluated against MRSA in presence of 25% v/v human serum as well as bovine serum.

Data set [2] concerns Enterococcus faecalis (ATCC 7080). Put plainly: MIC, serial broth dilution. The class given is cell-based. The note with it: MHB, 18 h, 37° C. As for the experimental part: as §1, §2
Background: Broth dilution looks for growth in wells or tubes with falling amounts of substance.

Data set [3] deals with methicillin resistant Staphylococcus epidermidis (ATCC 51625). Briefly: MIC, serial broth dilution. Type of data set: cell-based. The note with it: MHB, 18 h, 37° C. As for the experimental part:
as §1, §2

Data set [4] has as its system Staphylococcus epidermidis (ATCC 12228). Briefly: MIC, serial broth dilution. The class given is cell-based. The settings on record: MHB, 18 h, 37° C. As for the experimental part: as §1, §2
The test system of data set [5] is methicillin resistant S. aureus (ATCC 33591). Put plainly: MIC, serial broth dilution. Type of data set: cell-based, Staphylococcus aureus. The note with it: MHB, 18 h, 37° C. The protocol: as §1, §2
The subject of another data set is S. aureus (ATCC 29213). Briefly: MIC, serial broth dilution. The class given is cell-based, Staphylococcus aureus. The settings on record: MHB, 18 h, 37° C. The protocol:
as §1, §2

The subject of a further data set is Staphylococcus species. Put plainly: Antibacterial activity. Type of data set: cell-based. As for the experimental part:
as §2

The subject of data set [6] is Gram-negative bacterial strains. Briefly: Antibacterial activity. The class given is cell-based. As for the experimental part:
as §2

Another data set has as its system S. aureus (ATCC 33591). Put plainly: Resistance development study, serial passage at sub MIC. The note with it: 17 serial passages at sub MIC. The class given is cell-based, Staphylococcus aureus. The protocol:
FIG. 5: Illustration of resistance development study in S. aureus (ATCC 33591) after 17 serial passages with sub MIC of 1c/1d or antibiotic treatment. The fold change in MIC is the ratio of the MIC after 17 passages relative to that MIC observed before first passage.
To determine potential of active peptidomimetics against resistance development, in vitro serial passage method at sub inhibitory concentration was done. Briefly, bacterial suspension (100 μL) from duplicate wells at the concentration of sub-MIC was used to inoculate fresh culture. The culture was grown to obtain approximately 10^5 CFU/mL for the next experiment. These bacterial suspensions were then incubated with desired concentration of antibacterial agents for 18 h to determine new MIC. The same sub culturing protocol was used for next 16 passages and MIC was determined using OD630 nm as described previously in the text [Chem. Biol., 20:1286-1295, 2013.]

The subject of data set [7] is human red blood cells (hRBC). Put plainly: Hemolytic activity. Type of data set: cell-based. The settings on record: 250 μg/mL, 1 h at 37° C. As for the experimental part: Hemolytic activity of the peptidomimetics was evaluated on human red blood cells (hRBC) as described previously with minor modifications [FEBS J, 273:4040-4054, 2006; Biochim Biophys Acta., 1798:1864-1875, 2010]. Briefly, 100 μL of fresh hRBC suspension 4% v/v in NaCl/Pi (35 mM phosphate buffer, 150 mM NaCl, pH 7.2) was placed in a 96-well plate. After incubation of the peptidomimetics (100 μL) in the hRBC suspension for 1 h at 37° C., the plates were centrifuged and supernatant (100 μL) was transferred to fresh 96-well plate. Absorbance was read at 540 nm using ELISA plate reader (Molecular Devices). Percent hemolysis was calculated using the following formula: % hemolysis=100[(A−A0)/(At−A0)]
Where, A represents absorbance of sample wells at 540 nm. Also A0 and At represents 0% and 100% hemolysis determined in NaCl/Pi and 1% Triton X-100, respectively (Table 2). […] Peptidomimetics 1e and 1f caused 31% and 30% hemolysis at 250 μg/mL. Peptidomimetics 2d, 2e and 2f caused significant hemolysis with 83%, 96% and 88% damage to hRBCs at […] respectively.

The next data set relates to MRSA. Put plainly: Membrane depolarization with DiSC3(5) dye. Type of data set: cell-based, Staphylococcus aureus. The settings on record: up to the highest concentration tested. The protocol: For determination of membrane depolarizing ability of designed peptidomimetics, a membrane potential sensitive dye DiSC3(5) was used as described previously with minor modifications [Org Biomol. Chem. 10: 8326-8335, 2012; J. Am. Chem. Soc., 132: 18417-18428, 2010.]. Briefly, overnight grown MRSA was sub cultured into MHB for 2-3 h at 37° C. to obtain mid-log phase cultures. The cells were centrifuged at 4000 rpm for 10 min at 25° C., washed, and re-suspended into respiration buffer (5 mM HEPES, 20 mM glucose, pH 7.4) to obtain a diluted suspension of OD600˜0.05. Then DiSC3(5) [0.18 μM in DMSO], was added to 500 μL aliquotes of the re-suspended cells and allowed to stabilize for 1 h. Baseline fluorescence was acquired using a Edinburg F900 spectrofluorometer by excitation at 622 nm and emission at 670 nm in a 1 cm path length cuvette. Bandwidth of 5 nm was employed for excitation and emission. Subsequently, increasing concentrations of test peptidomimetics were added to the stabilized cells and the increase of fluorescence on account of the de-quenching of DiSC3(5) dye was measured after every 2 min to obtain the maximal depolarization. Increase in relative fluorescence unit (RFU) was plotted against increasing concentrations of different peptidomimetics or PMB. […] The increase in fluorescence for lipid tagged peptidomimetics was concentration dependent up to 9.9 μg/mL and henceforth, got saturated resulting into plateau like dose response curves. The experiment was repeated twice on two consecutive days and produced similar results.

Another data set has as its system all the tested strains. Put plainly: Antibacterial activity. The class given is cell-based. The settings on record: series 2. As for the experimental part: as §2
For data set [8], the system named is Acinetobacter baumannii (ATCC 19606). Briefly: MIC, serial broth dilution. The class given is cell-based. The settings on record: MHB, 18 h, 37° C. As for the experimental part:
as §1, §2

Take polymyxin B [PMB, reference compound]: the “MIC E. coli. (ATCC 11775)” value in data set [1] worked out at 0.4. In [2], the “MIC E. facaelis (ATCC 7080)” value amounted to 0.1136 µg/mL. Besides, the “MIC MRSE (ATCC 51625)” value in data set [3] turned out to be 0.0284 µg/mL. Moreover, the “MIC S. epidermidis (ATCC 12228)” value in data set [4] came to 7.1 µg/mL. Also, in data set [5], the “MIC MRSA (ATCC 33591)” value amounted to 28.4 µg/mL. In the data set with S. aureus (ATCC 29213), the “MIC S. aureus (ATCC 29213)” value was found to be 0.0142 µg/mL. For the same molecule, in the data set with Staphylococcus species, the “activity against Staphylococcus species” value is recorded as “relatively poor activity”. Besides, in data set [6], the “growth inhibition of Gram-negative bacterial strains” value was “excellent growth inhibition”.
`O=C(O)c1cn(C2CC2)c2cc(N3CCNCC3)c(F)cc2c1=O` [ciprofloxacin, reference compound]: the “increase in MIC after 17 passages” value in the data set with S. aureus (ATCC 33591) came out at 256 fold.
Consider `NCCCN(CCCCN(CCCN)C(=O)C(N)Cc1c[nH]c2ccccc12)C(=O)C(N)Cc1c[nH]c2ccccc12` (stereo not shown) [2a], for which the “MIC E. coli. (ATCC 11775)” value in [1] is reported as more than 454.4. For the same molecule, the “% H, percentage hemolysis of human RBCs” value in [7] worked out at 0%. Besides, the “MIC MRSE (ATCC 51625)” value in data set [3] was 0.2272 µg/mL (≈ 0.395 µM). In data set [4], the “MIC S. epidermidis (ATCC 12228)” value is more than 454.4 µg/mL. Further, the “MIC MRSA (ATCC 33591)” value in [5] was more than 227.2 µg/mL. Further, the “MIC S. aureus (ATCC 29213)” value in the data set with S. aureus (ATCC 29213) is more than 0.4544 µg/mL. Also, the “change in relative fluorescence unit (RFU), membrane depolarization” value in the data set on MRSA was “only minor increase”. For the same molecule, the “antibacterial activity” value in the data set with all the tested strains was “poor activity”.
Turning to `NCCCN(CCCCN(CCCNC(=O)C=Cc1ccc(O)c(O)c1)C(=O)C(N)Cc1c[nH]c2ccccc12)C(=O)C(N)Cc1c[nH]c2ccccc12` (stereo not shown) [2b], the “MIC E. coli. (ATCC 11775)” value in [1] is listed as more than 454.4. In addition, the “% H, percentage hemolysis of human RBCs” value in [7] is on record as 5%. For the same molecule, in data set [5], the “MIC MRSA (ATCC 33591)” value amounted to 454.4 µg/mL (≈ 617 µM). In the data set on S. aureus (ATCC 29213), the “MIC S. aureus (ATCC 29213)” value was more than 0.4544 µg/mL. For the same molecule, the “antibacterial activity” value in the data set on all the tested strains was “poor activity”.
Consider `NCCCN(CCCCN(CCCNC(=O)Cc1ccc(C(F)(F)F)cc1)C(=O)C(N)Cc1c[nH]c2ccccc12)C(=O)C(N)Cc1c[nH]c2ccccc12` (stereo not shown) [2c], for which the “MIC E. coli. (ATCC 11775)” value in data set [1] turned out to be 113.6. In addition, in data set [7], the “% H, percentage hemolysis of human RBCs” value amounted to 1%. The “MIC MRSE (ATCC 51625)” value in data set [3] was determined as 0.0142 µg/mL (≈ 0.0187 µM). The “MIC S. epidermidis (ATCC 12228)” value in data set [4] amounted to 7.1 µg/mL (≈ 9.33 µM). In data set [8], the “MIC A. baumannii (ATCC 19606)” value is 0.1136 µg/mL (≈ 0.149 µM). Further, the “MIC MRSA (ATCC 33591)” value in [5] was determined as 28.4 µg/mL (≈ 37.3 µM). Further, the “MIC S. aureus (ATCC 29213)” value against S. aureus (ATCC 29213) was found to be 0.0142 µg/mL (≈ 0.0187 µM). In addition, the “change in relative fluorescence unit (RFU), membrane depolarization” value with MRSA was “only marginal changes in RFU”. Besides, the “antibacterial activity” value in the data set with all the tested strains is listed as “moderate activity”.
